Where two headings read alike, the source gives them in different places. Marks after values point to notes of the source that are not given here.
Key:
[1] = molecular target: phosphodiesterase 3; assay: Phosphodiesterase 3 activity; type: biochemical; settings: read-out: IC50, phosphodiesterase 3
[2] = test system: bacteria; assay: Bacterial reverse mutation assay; type: cell-based
[3] = In vitro induction of chromosome aberrations; type: cell-based
[4] = test system: rat; assay: In vivo micronucleus test in rat
[5] = test system: dogs; assay: Single oral dose-escalation study in dogs; type: in vivo, dog; settings: at 30 mg/kg/day
[6] = 4-week study in dogs; type: in vivo, dog; settings: dog
[7] = test system: dogs; assay: 4-week study in dogs; type: in vivo, dog; settings: dogs
[8] = First-in-human pharmacokinetics in healthy volunteers; type: in vivo; settings: for Mean t1/2 / AUC(0-inf) / AUC(0-t) / Cmax / Tmax / Vd/F: healthy volunteers; for Mean t1/2 / AUC(0-inf) / AUC(0-t) / Cmax / Tmax / half-life / Vd/F: [SD]; for AUC(0-inf) / AUC(0-t) / Cmax / Tmax / half-life / Vd/F: human, plasma, po; for AUC(0-inf): Mean AUC0−inf; for AUC(0-t): Mean AUC0−t; for Cmax: Mean Cmax; for Tmax: Mean Tmax; for half-life: Mean t1/2, healthy volunteers
[9] = test system: healthy volunteers; assay: Intensive ECG monitoring in healthy volunteers; type: in vivo, human
[10] = test system: plasma cytokines, chemokines, and growth factors; type: in vivo, human; settings: IL‐1β, IL‐2, IL‐4, IL‐6, IL‐8, IFNγ, TNFα; IL‐15, IL‐17A; MCP‐1, and IP‐10
[11] = Plasma protein binding; type: in vitro ADME, human, dog
[12] = test system: healthy volunteers; settings: for AEs grade 1–2 CTCAE, % / AEs grade 3 CTCAE: ↑CK, % / Gastrointestinal disorders, % / Investigations, % / ↑ALT (%) / ↑CK (%) / ↓WBC (%) / SAEs: seizure (%) / Diarrhea, %: number of subjects (%); for Diarrhea, %: grade 1–2
[13] = test system: mouse model of CML‐BC; settings: cited from earlier work
[14] = test system: stem cells derived from patients with CML‐BC or Philadelphia chromosome–positive acute lymphoblastic leukemia; settings: in combination with tyrosine kinase inhibitors; cited from earlier work
[15] = test system: pro‐inflammatory cytokines, chemokines, and growth factors; settings: in vivo; cited from earlier work
[16] = 10 mg, oral 10 mg single dose FASTED (N = 16)
[17] = 10 mg, oral 10 mg single dose FED (N = 9)
[18] = 20 mg, oral 20 mg single dose FASTED (N = 14)
[19] = 10 mg single dose FASTED (N = 16)
[20] = 20 mg single dose FASTED (N = 14)

N#Cc1ccc(-c2cnc3ccc(-c4ccc(C(=O)N5CCOCC5)cc4)cn23)cc1 [ETC‐206]
IC50 [1]: 2250 nM
mutagenicity [2]: did not show any mutagenicity
mutagenicity [3]: did not show any mutagenicity
mutagenicity [4]: did not show any mutagenicity
cardiovascular parameters (blood pressure, heart rate, cardiac repolarization) [5]: affected cardiovascular (CV) parameters
NOAEL at 4 weeks ([6]; in vivo): 3 mg/kg/day
AUC(0-t) ([6]; plasma, 3 mg/kg/day): 7230 ng·h/mL
Cmax ([6]; plasma, 3 mg/kg/day): 935 ng/mL
highest unbound mean free fraction AUC0−last at NOAEL [7]: 670 ng·h/mL
highest unbound mean free fraction Cmax at NOAEL [7]: 11.8 ng/mL
bile duct proliferation ([7]; 4 weeks, medium and high doses): minimal to mild
liver enzymes (ALT, alkaline phosphatase, gamma glutamyltransferase) ([7]; 4 weeks, medium and high doses): increase in liver enzymes
dose proportionality ([8]; 10 to 20 mg single doses in fasted condition): showed dose proportionality
Mean t1/2 ([8]; oral 10 mg single dose FASTED (N = 16)): 22.95 [5.63] hour
Mean t1/2 ([8]; oral 10 mg single dose FED (N = 9)): 27.57 [5.68] hour
AUC(0-inf) [8, 16]: 24400 ng·h/mL
AUC(0-inf) [8, 17]: 30000 ng·h/mL
AUC(0-t) [8, 16]: 21900 ng·h/mL
AUC(0-t) [8, 17]: 28700 ng·h/mL
Cmax [8, 16]: 927 ng/mL
Tmax [8, 16]: 1.11 h
half-life [8, 16]: ~23 h
half-life [8, 17]: ~28 h
Vd/F [8, 16]: 13.9 L
AUC(0-inf) [8, 18]: 60300 ng·h/mL
AUC(0-t) [8, 18]: 57800 ng·h/mL
Cmax [8, 18]: 1950 ng/mL
Tmax [8, 18]: 1 h
half-life [8, 18]: 25.8 h
Vd/F [8, 18]: 12.5 L
relationship between ETC‐206 plasma concentrations and changes from baseline of QTcF ([9]; mixed effects regression model, flat slope (P = 0.7) of each dose and condition): no relationship
proarrhythmic risks ([9]; range of doses explored (10 and 20 mg single doses)): no evidence for ETC‐206 proarrhythmic risks
activity on plasma cytokines, chemokines, and growth factors [10]: did not show any activity
plasma protein binding in humans compared with dogs [11]: higher
serious adverse events related to ETC‐206 ([12]; general safety): did not show any serious adverse events
AEs grade 1–2 CTCAE, % [12, 19]: 9 (56)
AEs grade 3 CTCAE: ↑CK, % [12, 19]: 0
Gastrointestinal disorders, % [12, 19]: 4 (25)
Investigations, % [12, 19]: 5 (31)
↑ALT (%) [12, 19]: 1 (6)
↑CK (%) [12, 19]: 1 (6)
↓WBC (%) [12, 19]: 3 (19)
SAEs: seizure (%) ([12]; 10 mg single dose FASTED (N = 16), not drug-related): 1 (6) ^a
AEs grade 1–2 CTCAE, % ([12]; 10 mg single dose FED (N = 9)): 9 (100)
AEs grade 3 CTCAE: ↑CK, % ([12]; 10 mg single dose FED (N = 9)): 0
Gastrointestinal disorders, % ([12]; 10 mg single dose FED (N = 9)): 2 (22)
Investigations, % ([12]; 10 mg single dose FED (N = 9)): 1 (11)
SAEs: seizure (%) ([12]; 10 mg single dose FED (N = 9)): 0
↑ALT (%) ([12]; 10 mg single dose FED (N = 9)): 0
↑CK (%) ([12]; 10 mg single dose FED (N = 9)): 0
↓WBC (%) ([12]; 10 mg single dose FED (N = 9)): 1 (11)
AEs grade 1–2 CTCAE, % [12, 20]: 11 (79)
Gastrointestinal disorders, % [12, 20]: 3 (21)
Investigations, % [12, 20]: 1 (7)
SAEs: seizure (%) [12, 20]: 0
↑ALT (%) [12, 20]: 0
↑CK (%) [12, 20]: 0
↓WBC (%) [12, 20]: 0
AEs grade 3 CTCAE: ↑CK, % ([12]; 20 mg single dose FASTED (N = 14), not drug-related): 1 (7) ^b
Diarrhea, % [12, 19]: 3 (19)
Diarrhea, % ([12]; 10 mg single dose FED (N = 9)): 2 (22) ^f
Diarrhea, % [12, 20]: 3 (21) ^g
maximum administered dose ([12]; single dose, fasted, no dose‐limiting toxicity, not the maximum tolerated dose): 20 mg
tumor growth ([13]; in combination with tyrosine kinase inhibitors): inhibited tumor growth
antitumor activity ([13]; single agent): no antitumor activity
survival of stem cells [14]: impeded survival
plasma levels of pro‐inflammatory cytokines, chemokines, and growth factors [15]: decrease plasma levels

— paper PMC6951458 (Clinical and Translational Science, 2019)
